These results are taken from patent US10828305B2 (SHANGHAI PHARMACEUTICALS HOLDING CO., LTD., priority 2016, dated 2020).

In one assay the target is EGFR kinase (Homo sapiens, UniProt P00533). Put plainly: Enzymatic experiment on EGFR (HTRF kinEASE-TK). It counts as biochemical. The note with it: ATP 1.65 μM; read-out: Kinase IC50 (nM) in vitro EGFR. How it is done:
(§1) Enzymatic Experiment on EGFR/ErbB2
(§2) Firstly, preparing 1× reaction buffer required for the kinase, 5× Enzymatic buffer (HEPES 20 mM pH7.0, NaN3 0.1%, BSA 0.05%, sodium orthovanadate 0.5 mM) in the HTRF kinEASE-TK kit was diluted to 1 time with deionized water, 50 nM Supplement Enzymatic buffer (SEB reagent), 1 mM MnCl2, 5 mM MgCl2 and 1 mM DTT were added. Secondly, preparing 5× compound, 10 mM test compound stock solution was diluted in multiple steps with DMSO in a 96-well compound plate to prepare 100× compound as initial concentration, which was then used as the first concentration to perform a 3-fold gradient dilution with DMSO to obtain 10 concentrations. Afterwards, 1 μl gradient dilution was added to 19 μl 1× reaction buffer to prepare 5× compound for use. Then 2 μl 5× compound was transferred from the 96 well plate into a 384-well plate. To the compound-free control wells was added with 2 μl the following liquid: 19 μl 1× reaction buffer with addition of 1 μl DMSO. To the blank control wells was added 2 μl 250 mM EDTA. The third step was enzymatic reaction, the kinase, substrate (TK Substrate-biotin) and ATP were formulated into 2.5× enzyme/substrate mixture and 2.5×ATP solution using 1× reaction buffer respectively. The final concentration of ErbB2 kinase was 0.06 ng/μl, the final concentration of ATP was 4 μM; the final concentration of EGFR kinase was 0.06 units/μl, the final concentration of ATP was 1.65 μM; 4 μl 2.5× enzyme/substrate mixture was added to a 384-well plate, which was incubated at room temperature for 5 minutes; 4 μl 2.5×ATP solution was added to each well and the mixture was allowed to react for 30 minutes at room temperature. The fourth step was termination of the reaction, HTRF Detection buffer was used to prepare a mixture of 2×TK Antibody-Eu(K) and Sa-XL665, the amount of TK Antibody-Eu(K) was 5 μl per well. After the enzymatic reaction was performed for 30 minutes, 10 μl of the above liquid was added to the 384-well plate and the mixture was allowed to react at room temperature for 1 hour. The data was measured on EnVision™, the laser of 337 nm wavelength was selected as the excitation light, RFU665 nM and RFU620 nM were measured, and […]/RFU620 nM×10000 was used as the final data for analysis.

Another assay has as its target ErbB2 kinase (Homo sapiens, UniProt P04626). Kind of assay: Enzymatic experiment on ErbB2 (HTRF kinEASE-TK). The class given is biochemical. The following applies: ATP 4 μM; read-out: Kinase IC50 (nM) in vitro ErbB2. As for the experimental part: as §1, §2

Chain of ErbB2 kinase (P04626 23-1255): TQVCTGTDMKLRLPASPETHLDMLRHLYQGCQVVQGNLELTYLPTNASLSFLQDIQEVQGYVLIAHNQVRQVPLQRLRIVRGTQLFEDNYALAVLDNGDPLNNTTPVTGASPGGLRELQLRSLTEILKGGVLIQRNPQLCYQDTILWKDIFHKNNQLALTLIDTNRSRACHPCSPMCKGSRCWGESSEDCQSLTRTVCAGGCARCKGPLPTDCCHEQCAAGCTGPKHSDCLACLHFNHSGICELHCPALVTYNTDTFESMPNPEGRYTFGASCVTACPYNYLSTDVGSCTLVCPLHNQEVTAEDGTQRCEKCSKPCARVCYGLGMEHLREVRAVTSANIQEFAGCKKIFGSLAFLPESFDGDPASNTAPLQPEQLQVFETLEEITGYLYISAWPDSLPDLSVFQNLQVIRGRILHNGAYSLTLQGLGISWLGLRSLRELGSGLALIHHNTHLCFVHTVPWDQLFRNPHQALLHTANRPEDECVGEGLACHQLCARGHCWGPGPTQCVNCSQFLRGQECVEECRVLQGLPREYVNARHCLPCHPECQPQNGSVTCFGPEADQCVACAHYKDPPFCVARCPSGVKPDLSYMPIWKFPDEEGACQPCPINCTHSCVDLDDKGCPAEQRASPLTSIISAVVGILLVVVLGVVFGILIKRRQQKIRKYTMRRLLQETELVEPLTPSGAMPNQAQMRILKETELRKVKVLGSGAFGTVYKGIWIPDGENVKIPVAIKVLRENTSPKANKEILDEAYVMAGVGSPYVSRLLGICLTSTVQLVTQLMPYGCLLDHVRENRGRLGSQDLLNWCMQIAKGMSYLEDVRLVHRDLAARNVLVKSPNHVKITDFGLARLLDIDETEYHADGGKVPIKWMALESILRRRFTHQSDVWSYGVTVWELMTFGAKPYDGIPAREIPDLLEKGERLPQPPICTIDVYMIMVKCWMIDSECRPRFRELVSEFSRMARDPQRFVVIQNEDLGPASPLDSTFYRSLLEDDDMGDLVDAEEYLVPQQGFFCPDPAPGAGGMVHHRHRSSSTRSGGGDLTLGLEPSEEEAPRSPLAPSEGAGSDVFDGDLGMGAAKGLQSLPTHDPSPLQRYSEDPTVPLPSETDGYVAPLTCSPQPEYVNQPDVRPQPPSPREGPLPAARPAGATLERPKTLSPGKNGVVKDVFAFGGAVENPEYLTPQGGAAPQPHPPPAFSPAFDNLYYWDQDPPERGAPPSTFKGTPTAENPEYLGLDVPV
Chain of EGFR kinase (P00533 25-1210): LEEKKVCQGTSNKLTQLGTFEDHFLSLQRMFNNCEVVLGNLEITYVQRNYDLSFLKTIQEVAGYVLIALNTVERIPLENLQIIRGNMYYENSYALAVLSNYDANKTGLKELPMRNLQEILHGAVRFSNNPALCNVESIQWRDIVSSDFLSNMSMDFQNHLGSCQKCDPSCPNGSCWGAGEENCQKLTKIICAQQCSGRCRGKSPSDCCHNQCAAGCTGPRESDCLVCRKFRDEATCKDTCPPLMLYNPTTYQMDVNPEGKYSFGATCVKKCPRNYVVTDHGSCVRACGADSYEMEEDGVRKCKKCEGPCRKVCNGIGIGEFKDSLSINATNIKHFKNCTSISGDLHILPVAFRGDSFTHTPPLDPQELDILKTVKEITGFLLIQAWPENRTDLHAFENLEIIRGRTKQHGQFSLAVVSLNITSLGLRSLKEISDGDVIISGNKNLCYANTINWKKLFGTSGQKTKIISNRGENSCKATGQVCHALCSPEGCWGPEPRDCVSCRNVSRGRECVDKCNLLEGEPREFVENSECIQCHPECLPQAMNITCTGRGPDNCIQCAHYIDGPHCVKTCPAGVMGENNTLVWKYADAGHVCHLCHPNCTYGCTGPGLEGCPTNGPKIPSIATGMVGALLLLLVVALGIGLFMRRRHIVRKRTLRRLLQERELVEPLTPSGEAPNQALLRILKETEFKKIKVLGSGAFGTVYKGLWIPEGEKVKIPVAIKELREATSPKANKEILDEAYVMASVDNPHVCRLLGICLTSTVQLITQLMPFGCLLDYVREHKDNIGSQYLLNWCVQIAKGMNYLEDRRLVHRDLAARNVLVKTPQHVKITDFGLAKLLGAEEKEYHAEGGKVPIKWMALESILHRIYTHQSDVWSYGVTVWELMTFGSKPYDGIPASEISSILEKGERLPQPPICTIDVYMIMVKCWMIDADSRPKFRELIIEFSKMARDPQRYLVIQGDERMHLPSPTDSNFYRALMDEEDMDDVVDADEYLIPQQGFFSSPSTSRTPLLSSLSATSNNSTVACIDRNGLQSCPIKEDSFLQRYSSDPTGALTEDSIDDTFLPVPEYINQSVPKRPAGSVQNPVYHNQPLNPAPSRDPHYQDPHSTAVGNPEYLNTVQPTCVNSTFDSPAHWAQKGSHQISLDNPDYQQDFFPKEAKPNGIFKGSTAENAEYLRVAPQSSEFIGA

Regarding `Cc1cc(Nc2ncnc3ccc(/C=C/C(=O)NOCCO)cc23)ccc1Oc1cc2nncn2cn1`, the IC50 on EGFR kinase amounted to 82.7 nM; on ErbB2 kinase, 22.1 nM.
On the same counts, the results for `Cc1cc(Nc2ncnc3ccc(NC4=NC(C)(C)CO4)cc23)ccc1Oc1cc2ncnn2cn1` [Embodiment 2, N^4-(4-([1,2,4]triazolo[1,5-c]pyrimidin-7-yloxy)-3-methylphenyl)-N^6-(4,4-dimethyl-4,5-dihydrooxazol-2-yl)quinazoline-4,6-diamine] are 230 nM and 16.7 nM.
Taken in the same sequence, the figures for `Cc1cc(Nc2ncnc3ccc(NC(=O)N4CCOCC4)cc23)ccc1Oc1cc2nncn2cn1` [Embodiment 6] were 1890 nM and 24.8 nM.
In the case of `Cc1cc(Nc2ncnc3ccc(NC(=S)NC(C)(C)CNC(=O)OC(C)(C)C)cc23)ccc1Oc1cc2nncn2cn1` [Embodiment 11, tert-butyl (2-(3-(4-((4-([1,2,4]triazolo[4,3-c]pyrimidin-7-yloxy)-3-methylphenyl)amino)quinazolin-6-yl)thioureido)-2-methylpropyl)carbamate], the IC50 on EGFR kinase is > 3330 nM; on ErbB2 kinase it was 58.1 nM.
Taken in the same sequence, the figures for `Cc1cc(Nc2ncnc3ccc(NC(=S)NCC(C)(C)N)cc23)ccc1Oc1cc2nncn2cn1` [Embodiment 18, 1-(4-((4-([1,2,4]triazolo[4,3-c]pyrimidin-7-yloxy)-3-methylphenyl)amino)quinazolin-6-yl)-3-(2-amino-2-methylpropyl)thiourea] were 79.5 nM and 13.2 nM.
In the case of `Cc1cc(Nc2ncnc3ccc(NC(=O)OC[C@@H]4COCCN4)cc23)ccc1Oc1cc2nncn2cn1` [Embodiment 20, morpholin-3-ylmethyl (S)-(4-((4-([1,2,4]triazolo[4,3-c]pyrimidin-7-yloxy)-3-methylphenyl)amino)quinazolin-6-yl)carbamate], the figures for the IC50 on EGFR kinase and at ErbB2 kinase were 40.6 nM and 4.3 nM, respectively.
Taken in the same sequence, the figures for `Cc1cc(Nc2ncnc3ccc(NC4=NCC5(CCNCC5)O4)cc23)ccc1Oc1cc2nncn2cn1` [Embodiment 28, N^4-(4-([1,2,4]triazolo[4,3-c]pyrimidin-7-yloxy)-3-methylphenyl)-N^6-(1-oxa-3,8-diazaspiro[4.5]dec-2-en-2-yl)quinazoline-4,6-diamine] were 17.7 nM and 4.79 nM.
Taken in the same sequence, the figures for `C=CC(=O)N1CC2(COC(Nc3ccc4ncnc(Nc5ccc(Oc6cc7nncn7cn6)c(C)c5)c4c3)=N2)C1` [Embodiment 29, 1-(6-((4-((4-([1,2,4]triazolo[4,3-c]pyrimidin-7-yloxy)-3-methylphenyl)amino)quinazolin-6-yl)amino)-7-oxa-2,5-diazaspiro[3.4]oct-5-en-2-yl)prop-2-en-1-one] were 41.8 nM and 3.6 nM.
Regarding `Cc1cc(Nc2ncnc3ccc(NC(=O)CC#N)cc23)ccc1Oc1cc2nncn2cn1` [Embodiment 37, N-(4-((4-([1,2,4]triazolo[4,3-c]pyrimidin-7-yloxy)-3-methylphenyl)amino)quinazoline-6-yl)-2-cyanoacetamide], the concentration for half-maximal inhibition (IC50) is 45.2 nM on EGFR kinase and 4.8 nM at ErbB2 kinase.
On the same counts, the results for `Cc1cc(Nc2ncnc3ccc(NC(=O)c4cnoc4C)cc23)ccc1Oc1cc2nncn2cn1` [Embodiment 39, N-(4-((4-([1,2,4]triazolo[4,3-c]pyrimidin-7-yloxy)-3-methylphenyl)amino)quinazoline-6-yl)-5-methylisoxazole-4-carboxamide] are 20 nM and 1.8 nM.
On to `COc1cc2ncnc(Nc3ccc(Oc4cc5nncn5cn4)c(C)c3)c2cc1OC1CCNCC1` [Embodiment 40, N-(4-([1,2,4]triazolo[4,3-c]pyrimidin-7-yloxy)-3-methylphenyl)-7-methoxy-6-(piperidin-4-yloxy)quinazolin-4-amine], for which the half-inhibitory concentration (IC50) on EGFR kinase came out at 12.7 nM; at ErbB2 kinase it was 6.9 nM.
As for `Cc1cc(Nc2ncnc3ccc(NC4=NCC(F)(F)CO4)cc23)ccc1Oc1cc2nncn2cn1` [Embodiment 43, N^4-(4-([1,2,4]triazolo[4,3-c]pyrimidin-7-yloxy)-3-methylphenyl)-N^6-(5,5-difluoro-5,6-dihydro-4H-1,3-oxazin-2-yl)quinazoline-4,6-diamine], the half-inhibitory concentration (IC50) on EGFR kinase is 69.7 nM; at ErbB2 kinase it was 9.26 nM.
On the same counts, the results for `Cc1cc(Nc2ncnc3ccc(NC(=O)Nc4cc(C)n(C(=O)OC(C)(C)C)n4)cc23)ccc1Oc1cc2nncn2cn1` [Embodiment 69, tert-butyl 3-(3-(4-((4-([1,2,4]triazolo[4,3-c]pyrimidin-7-yloxy)-3-methylphenyl)amino)quinazolin-6-yl)ureido)-5-methyl-1H-pyrazol-1-carbamate] are 92.7 nM and 7 nM.
On the same counts, the results for `Cc1cc(Nc2ncnc3ccc(NC(=O)/C(C#N)=C/C4CC4)cc23)ccc1Oc1cc2nncn2cn1` [Embodiment 85, (E)-N-(4-((4-([1,2,4]triazolo[4,3-c]pyrimidin-7-yloxy)-3-methylphenyl)amino)quinazolin-6-yl)-2-cyano-3-cyclopropylacrylamide] are 14.9 nM and 2.2 nM.
On the same counts, the results for `CC1(C)COC(Nc2ccc3ncnc(Nc4ccc(Oc5cc6nncn6cn5)c(CO)c4)c3c2)=N1` [Embodiment 89, N^4-(3-hydroxymethyl-4-([1,2,4]triazolo[4,3-c]pyrimidin-7-yloxy)phenyl)-N^6-(4,4-dimethyl-4,5-dihydrooxazol-2-yl)quinazolin-4,6-diamine] are 167 nM and 8.5 nM.
For `Cc1cc(Nc2ncnc3ccc(NC4=NC(C)(C)CO4)cc23)ccc1Oc1ncn2cnnc2c1O` [Embodiment 102, 7-(4-((6-((4,4-dimethyl-4,5-dihydrooxazol-2-yl)amino)quinazolin-4-yl)amino)-2-methylphenoxy)-[1,2,4]triazolo[4,3-c]pyrimidin-8-ol], the half-maximal inhibitory concentration (IC50) on EGFR kinase is 11.4 nM; on ErbB2 kinase, 4.5 nM.
On the same counts, the results for `Cc1cc(Nc2ncnc3ccc(NC(=S)NCC(C)(C)O)cc23)ccc1Oc1cc2nncn2cn1` [Embodiment 113, 1-(4-((4-([1,2,4]triazolo[4,3-c]pyrimidin-7-yloxy)-3-methylphenyl)amino)quinazolin-6-yl)-3-(2-hydroxy-2-methylpropyl)thiourea] are 170 nM and 9.4 nM.
On the same counts, the results for `C=CC(=O)N1CCC2(CC1)CN=C(Nc1ccc3ncnc(Nc4ccc(Oc5cc6nncn6cn5)c(C)c4)c3c1)O2` [Embodiment 114, 1-(2-((4-((4-([1,2,4]triazolo[4,3-c]pyrimidin-7-yloxy)-3-methylphenyl)amino)quinazolin-6-yl)amino)-1-oxa-3,8-diazaspiro[4,5]dec-2-en-8-yl)-2-acrylamide] are 623 nM and 24.5 nM.
Turning to `Cc1cc(Nc2ncnc3ccc(NC4=NC(C)(C)CO4)cc23)ccc1Oc1ccn2nccc2n1` [reference compound], the IC50 stood at 82.7 nM on EGFR kinase and 49.4 nM at ErbB2 kinase.
Taken in the same sequence, the figures for `Cc1cc(Nc2ncnc3ccc(NC4=NC(C)(C)CO4)cc23)ccc1Oc1ccc2nncn2n1` [reference compound] were 557 nM and 935 nM.
